Laboratory results published in patent publication US20140343095A1, “Methods of Diagnosing and Treating Multiple Sclerosis” (The Brigham and Women's Hospital, Inc., priority 2009, published 2014).
“Also recorded” adds a separate entry of the source.

What was measured:
PARP-1 [1] = target: T1, PARP-1 (Mus musculus, UniProt P11103); assay: Cellular PARP-1 activity in microglia, macrophages or astrocytes; assay type: cell-based; design: host or cells: C8B4 microglia, C8-D1A astrocytes, Raw 264.7 macrophages
T1 sequence (P11103 whole entry): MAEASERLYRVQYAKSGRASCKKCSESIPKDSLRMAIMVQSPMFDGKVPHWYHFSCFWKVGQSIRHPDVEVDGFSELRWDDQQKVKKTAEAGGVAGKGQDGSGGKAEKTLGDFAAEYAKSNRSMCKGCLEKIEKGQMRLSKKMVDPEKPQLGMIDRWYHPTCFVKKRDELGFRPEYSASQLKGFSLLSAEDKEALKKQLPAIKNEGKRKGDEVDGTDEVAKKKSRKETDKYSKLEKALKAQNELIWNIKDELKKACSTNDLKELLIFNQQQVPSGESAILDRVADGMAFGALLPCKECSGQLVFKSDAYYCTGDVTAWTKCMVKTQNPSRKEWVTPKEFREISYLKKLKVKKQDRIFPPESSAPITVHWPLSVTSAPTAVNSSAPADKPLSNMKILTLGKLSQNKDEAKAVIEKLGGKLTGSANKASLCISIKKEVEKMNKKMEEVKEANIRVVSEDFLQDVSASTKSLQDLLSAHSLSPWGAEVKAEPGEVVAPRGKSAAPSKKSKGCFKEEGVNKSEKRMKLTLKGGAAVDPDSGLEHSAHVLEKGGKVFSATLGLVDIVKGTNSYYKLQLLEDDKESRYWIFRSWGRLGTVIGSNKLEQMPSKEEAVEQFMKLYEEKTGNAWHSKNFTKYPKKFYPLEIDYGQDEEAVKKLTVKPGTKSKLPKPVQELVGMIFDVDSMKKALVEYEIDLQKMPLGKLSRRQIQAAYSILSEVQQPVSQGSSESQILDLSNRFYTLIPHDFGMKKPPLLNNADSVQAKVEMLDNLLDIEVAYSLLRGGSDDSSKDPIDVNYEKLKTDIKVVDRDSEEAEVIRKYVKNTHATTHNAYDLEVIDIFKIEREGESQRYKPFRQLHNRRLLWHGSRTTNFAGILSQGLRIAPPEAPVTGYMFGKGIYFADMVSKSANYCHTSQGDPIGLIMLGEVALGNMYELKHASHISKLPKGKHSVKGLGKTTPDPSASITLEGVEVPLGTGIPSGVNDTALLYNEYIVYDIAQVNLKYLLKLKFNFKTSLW
Protocol: 5A, a bar graph showing the time course of microglial PARP-1 activation by 15-oxysterols or 7-KC. PARP-1 activity is shown as Mean±SEM. […] (Mean±SEM) 5C, a bar graph showing activation of microglial PARP-1 by 15-HC in the presence of kinase inhibitors (Mean±SEM).
6A, a set of three bar graphs showing PARP-1 activity in microglia, macrophages or astrocytes activated with 15-HC in the presence of blocking antibodies to TLR2 or TLR4, or isotype controls (Mean±SEM).
PARP-1 activity was measured using PARP HT Universal Colorimetric Kit (Trevigen, MD, USA), following manufacturer instructions.
Cells were cultured with DMEM supplemented with 10% fetal bovine serum, 2 mM L-glutamine, 25 mM HEPES, and 1 mM sodium pyruvate. Cells in logarithmic growth were treated with 1 μg/ml of 15-HC for 1, 5, 15, and 30 minutes in serum-free medium. Blocking antibodies (Ebioscience, San Diego, Calif., USA) were added in some experiments at a final concentration of 10 ug/ml.

PARP-1 [2] = target: T2, PARP-1 (Homo sapiens, UniProt P09874); settings: Diestel et al. 2003; cited from earlier work
Target sequence in this assay (P09874 whole entry, species assumed): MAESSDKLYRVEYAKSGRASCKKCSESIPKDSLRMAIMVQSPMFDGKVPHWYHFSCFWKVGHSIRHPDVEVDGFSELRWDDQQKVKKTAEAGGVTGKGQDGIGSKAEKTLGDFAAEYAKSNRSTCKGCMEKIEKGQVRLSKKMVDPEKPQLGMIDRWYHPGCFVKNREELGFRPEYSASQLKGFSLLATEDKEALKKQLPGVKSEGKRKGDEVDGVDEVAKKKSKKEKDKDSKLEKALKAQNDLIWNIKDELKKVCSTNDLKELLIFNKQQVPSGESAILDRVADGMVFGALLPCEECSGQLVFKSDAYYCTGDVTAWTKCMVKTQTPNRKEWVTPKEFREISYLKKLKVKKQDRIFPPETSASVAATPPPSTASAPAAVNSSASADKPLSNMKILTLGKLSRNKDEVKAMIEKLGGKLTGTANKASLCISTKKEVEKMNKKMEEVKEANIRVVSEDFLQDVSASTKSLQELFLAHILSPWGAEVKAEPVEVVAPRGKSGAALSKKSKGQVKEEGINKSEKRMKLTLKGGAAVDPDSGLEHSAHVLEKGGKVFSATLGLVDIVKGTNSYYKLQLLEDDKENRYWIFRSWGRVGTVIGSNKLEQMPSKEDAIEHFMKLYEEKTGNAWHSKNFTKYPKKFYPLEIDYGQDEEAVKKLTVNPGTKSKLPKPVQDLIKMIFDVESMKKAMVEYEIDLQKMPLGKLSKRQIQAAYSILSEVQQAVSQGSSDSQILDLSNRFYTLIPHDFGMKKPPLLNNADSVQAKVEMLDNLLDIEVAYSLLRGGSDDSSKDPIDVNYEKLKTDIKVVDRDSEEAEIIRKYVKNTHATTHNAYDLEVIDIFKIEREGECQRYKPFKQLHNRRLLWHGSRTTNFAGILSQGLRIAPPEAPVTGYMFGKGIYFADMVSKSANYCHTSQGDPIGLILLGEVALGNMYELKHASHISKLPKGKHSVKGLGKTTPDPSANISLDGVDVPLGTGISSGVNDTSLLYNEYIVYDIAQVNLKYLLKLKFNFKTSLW

PARP-1 [3] = target: T2, PARP-1; assay: PARP-1 enzymatic activity in human PBMCs (PARP HT Universal Colorimetric Kit); assay type: cell-based; design: endogenous in cells; host or cells: human PBMCs / monocytes / dendritic cells / T and B cells from healthy controls and MS patients; settings: healthy controls, 1 ug/ml 15-HC
Protocol: PARP-1 enzymatic activity (10A) and TNFalpha and CCL2 (10B) of PBMCs incubated with 15-HC alone, or in combination with AIQ, blocking antibodies to TLR2 or IC control.
To investigate whether the TLR2/PARP-1 axis is functional in human we activated PBMCs from healthy controls with 15-HC, in the presence or not of PARP-1 or TLR2 inhibitors.
Target sequence in this assay (P09874 whole entry): as the sequence (P09874 whole entry, species assumed) above

splenocytes = assay: Adaptive encephalitogenic recall response of splenocytes from treated mice (proliferation, cytokines); assay type: in vivo, mouse; settings: AIQ vs control-treated mice
Protocol: FIG. 7 is a set of eight bar graphs showing that the adaptive encephalitogenic immune response is not affected by the inhibition of PARP-1. Splenocytes prepared from control or AIQ-treated mice were activated in vitro with MOG35-55 (right column) or antibodies to CD3 (left column) and the cytokines levels were tested on the supernatant at 48 hours. Top row, IFN-gamma Second row, IL-17. Third row, IL-10. Bottom row, TGF-beta.
Splenocytes and lymph node cells were cultured in X-VIVO medium and plated at 5×10^5 cells per well in the presence of MOG35-55 for 72 hours. During the last 16 hours, cells were pulsed with 1 μCi of [^3H]-thymidine (PerkinElmer) followed by harvesting on glass fiber filters and analysis of incorporated [^3H]-thymidine in a beta-counter (1450 Microbeta, Trilux; PerkinElmer). Supernatants were collect after 48 h of culture for cytokine measurements by ELISA.

[4] = test system: microglia, macrophages or astrocytes; assay: TNF-α, CCL-2 and NO secretion by microglia, macrophages or astrocytes; assay type: cell-based, mouse; settings: co-incubation with 15-HC
Protocol: FIGS. 4A-D show the results of activation of microglia, macrophages and astrocytes by 15-HC. 4A, a bar graph showing PARP-1 activity in a cell-free system where recombinant PARP-1 was incubated with DNA which as been pretreated with 15-HC or 7-KC. Non-pretreated DNA was used as a negative control and ssb-DNA as a positive control. Data is shown as Mean±SEM. 4B, a pair of bar graphs showing PARP-1 activity measured in microglia, macrophages or astrocytes incubated with 15-HC or 7-KC. The data is shown as the fold of change between vehicle and lipid-treated cells (Mean±SEM). 4C, a pair of bar graphs showing percent inhibition of PARP-1 activity in microglia, macrophages or astrocytes activated with 15-HC or 7-KC […] in the presence of 5-AIQ. 4D, a table showing levels of TNF-α, CCL-2 and NO secretion by 15-HC or 7-KC treated microglia, macrophages or astrocytes (Mean±SEM).
The effect of 15-HC on the activity of cellular PARP-1 was then investigated. […] Thus, 15-HC activates microglia, macrophages and astrocytes through a PARP-1-dependent mechanism.

[5] = test system: NOD mice (experimental SPMS); assay: NOD experimental model of SPMS (MOG35-55 EAE), clinical score and spinal cord histology; assay type: in vivo, mouse
Protocol: 2A, a line graph showing the results of AIQ treatment when experimental SPMS was induced in ten-week old NOD mice by subcutaneous immunization with […] of MOG35-55 in CFA and Pertussis toxin (150 ng per mouse) given at the time of immunization and 48 hours later. AIQ (3 mg/Kg body weight) was given daily beginning on day 0, n=10 animals per group. A control group was treated with PBS. 2B, a pair of line graphs showing the results of regression analysis of EAE progression (top panel—acute phase, bottom panel—chronic phase). 2C, four images from histopathological analysis of EAE in NOD mice.
This experimental model of SPMS was used to analyze the levels of 15-oxysterols at peak of the acute EAE attack (day 18) and during the progressive phase of EAE (day 55).
150 ng/mouse of pertussis toxin (Sigma) were administered intraperitoneally on days 0 and 2. Clinical signs of EAE were assessed according to the following score: 0, no signs of disease; 1, loss of tone in the tail; 2, hind limb paresis; 3, hind limb paralysis; 4, tetraplegia; 5, moribund.
Image analysis was performed using the software ImageJ (NIH).

PARP-1 [6] = target: T1, PARP-1
Protocol: Microglia and astrocyte activation have been linked to the progressive phase of experimental SPMS (Basso et al., J Clin Invest 118, 1532-1543 (2008)), thus the activation of PARP-1 was analyzed in the CNS of NOD mice during the progressive phase of EAE.
Spinal cord tissue samples from MOG-immunized NOD mice with or without AIQ treatment were collected at day 55, fixed in 4% paraformaldehyde, cryoprotected in 20% sucrose, and frozen in OCT. Spinal cord frozen sections were cut at 10 μm and processed for histological analysis, immunohistochemistry, or immunofluorescence. […] For image analysis, 3 or 4 lumbar spinal cord sections were selected according to regional landmarks from 4 different animals per group. Image analysis was performed using the software ImageJ (NIH). For quantification, level of labeling “threshold” was used as a cut-off to determine positive or negative staining Immunofluorescence was performed using anti-Iba-1 (Wako, VA, USA), anti-GFAP (BD Bioscience, MA, USA) and anti PAR (Trevigen, MD, USA)

PARP-1 [7] = target: T2, PARP-1; assay: FACS-based detection of PARP-1 activity (PAR staining) in human monocytes / PBMCs; assay type: cell-based; design: endogenous in cells; host or cells: human PBMCs / monocytes / dendritic cells / T and B cells from healthy controls and MS patients; settings: human monocytes activated by 15-HC
Protocol: FIGS. 11A-B are show the results of FACS-based detection of PARP-1 activity. 11A. a set of five histograms showing PAR staining (as detected by FACS) of PBMCs incubated with 15-HC alone, or in combination with AIQ, blocking antibodies to TLR2 (TLR2 BL), or IC control (TLR2 IC). 11B, a line graph showing the correlation of PAR staining as detected by FACS with PARP-1 enzymatic activity detected on PBMCs activated with different concentration of 15-HC.
14A is a set of fifteen histograms showing PAR staining of PBMCs taken from HC (left column), RRMS (center column) or SPMS (right column) patients and unstimulated (top row) or activated with 15-HC alone (second row), or in combination with AIQ (third row), blocking antibodies to TLR2 (fourth row) or IC control (bottom row). 14B is a bar graph showing the mean fluorescence intensity (MFI)±SD of 5 samples/group from the histograms in 14A.
15A is a set of 24 histograms showing PAR staining of PBMCs taken from HC (left column), RRMS (center column) or SPMS (right column) patients and unstimulated (top row) or activated with pgLPS (second row), polyIC (third row), ecLPS (fourth row), flagellin (row 5), imiquimod (row 6), ssRNA (row 7) or CpG (row 8). 15B is a bar graph showing the mean fluorescence intensity (MFI)±SD of 5 samples/group from the histograms in […].
A new FACS-based method was developed to detect PARP-1 activation based on the intracellular detection of the PARP-1 product PAR with specific antibodies. Briefly, the cells were incubated with antibodies to CD16/32 to block unspecific antibody binding, and then stained for surface markers. After washing, the cells were permeabilized with Fix/Perm (BD), and then stained with rabbit anti-PAR antibodies (or control rabbit IgG) for 30′ at 4° C., followed by anti-rabbit PE for 30′ at room temperature. The samples were then analyzed by FACS.
Target sequence in this assay (P09874 whole entry): as the sequence (P09874 whole entry, species assumed) above

[8] = NOD mice, AIQ 3 mg/Kg body weight daily from day 0, vs PBS
[9] = spinal cord sections, day 55, progressive phase of NOD EAE

| inhibition of 15-HC-induced PARP-1 enzymatic activity in human PBMCs (PARP-1 [3]) | inhibition of PARP-1 activation by 15-HC (PARP-1 [1]; microglia, macrophages or astrocytes activated with 15-HC) | PARP-1 activity in CNS CD11b+ cells (PARP-1 [6]; cells isolated at day 55 from AIQ or control-treated mice) | PARP-1 activation in CNS (PAR staining) (PARP-1 [6]; progressive phase of NOD EAE, data not shown) | blockade of 15-HC-induced PAR staining (FACS) (PARP-1 [7]) | SMILES | incubation time resulting in activation of PARP-1 (PARP-1 [1]; macrophages or microglia) | activation of the nuclear enzyme PARP-1 (PARP-1 [2]) | proliferative recall response of splenocytes (splenocytes; activation with MOG35-55 or antibodies to CD3) | profile of cytokine secretion of splenocytes (splenocytes; supernatants at 48 h, IFN-gamma, IL-17, IL-10, TGF-beta) | inhibition of 15-HC-induced secretion of NO, CCL-2 and TNF-α [4] | clinical signs of progressive EAE [5, 8] | effect on the acute phase of EAE [5, 8] | axonal loss (Bielschowsky's silver staining) [5, 9] | demyelination (luxol fast blue) [5, 9] |
| --- | --- | --- | --- | --- | --- | --- | --- | --- | --- | --- | --- | --- | --- | --- |
|  |  |  |  |  | CC(C)CCC[C@@H](C)[C@H]1CC[C@H]2[C@@H]3C(=O)C=C4C[C@@H](O)CC[C@]4(C)[C@H]3CC[C@]12C [7-KC, 7-ketocholesterol, reference compound] | longer incubation times were required | activate |  |  |  |  |  |  |  |
| can be inhibited | could be inhibited | inhibition | decreased | could be blocked | Nc1cccc2c(=O)[nH]ccc12 [AIQ, 5-aminoisoquinolinone] |  |  | No statistical differences | no differences | could be inhibited | significant inhibition | little or no effect | significant decrease; also recorded: significantly reduced | significant decrease; also recorded: significantly reduced |
